Measured values: patent EP1100483B1, “GLUCOCORTICOID-SELECTIVE ANTI-INFLAMMATORY AGENTS” (Abbott Laboratories, priority 1998, dated 2000)

These compounds were tested against T1, human estrogen receptor-alpha (Homo sapiens, UniProt P03372) (assay: soluble estrogen receptor-alpha (ER-α) binding assay, [3H]-estradiol competition). Conditions: 2-3 nM [3H]-estradiol, 4 °C for 18 hours; Cheng-Prusoff.
T1 construct: made in house; host or cells: yeast strain BJ2168, copper-induced
T1 sequence (P03372 1-595): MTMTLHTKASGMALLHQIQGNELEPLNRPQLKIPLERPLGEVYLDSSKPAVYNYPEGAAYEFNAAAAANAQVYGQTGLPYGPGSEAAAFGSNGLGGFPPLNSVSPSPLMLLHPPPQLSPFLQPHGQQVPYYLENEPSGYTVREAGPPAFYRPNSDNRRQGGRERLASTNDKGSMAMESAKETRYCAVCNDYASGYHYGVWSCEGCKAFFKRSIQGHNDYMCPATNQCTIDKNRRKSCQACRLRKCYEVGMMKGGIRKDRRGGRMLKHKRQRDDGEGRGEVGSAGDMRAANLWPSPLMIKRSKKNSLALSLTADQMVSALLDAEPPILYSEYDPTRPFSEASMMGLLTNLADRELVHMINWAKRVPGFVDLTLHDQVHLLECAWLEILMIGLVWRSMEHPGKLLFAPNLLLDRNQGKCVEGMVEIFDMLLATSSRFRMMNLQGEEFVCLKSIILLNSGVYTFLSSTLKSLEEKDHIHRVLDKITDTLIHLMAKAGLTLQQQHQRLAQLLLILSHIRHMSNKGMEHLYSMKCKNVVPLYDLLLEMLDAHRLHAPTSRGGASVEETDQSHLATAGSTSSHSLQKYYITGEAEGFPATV
Text: For soluble estrogen receptor-alpha (ER-α) binding assays, [^3H]- Estradiol (120-140 Ci/mmol) was purchased from New England Nuclear (Boston, MA), 17-beta estradiol was purchased from Sigma Chemical Co. (St. Louis, MO), CHAPS and DTT were purchased from Boehringer Mannheim GmbH (W. Germany) and all other reagents were purchased from Sigma.
The human estrogen receptor-alpha cDNA was cloned into a yeast vector termed pYhERα and used to transform wild type yeast strain BJ2168 following the protocol outlined by Pham, T.A., Hwung Y.P., Santiso-Mere, D., McDonnell D.P., O'Malley, B.W., Ligand-Dependent and Independent Function of the Transactivation Regions of the Human Estrogen Receptor in Yeast, Mol. Endocrinol. 1992, 6, 1043-1050, hereby incorporated by reference. The yeast was induced with copper for 16 hours after which the cells were harvested, washed and the receptor extract prepared in cold buffer via a Bead Beater (BioSpec Products , Bartlesville, OK). Aliquots of the receptor typically contained 5-10 mg/ml of total protein and were stored at -80 °C until used. Estradiol or other competing compounds were prepared as 5 mM stock solutions in either 100% ethanol or DMSO and serial dilutions were carried out in 1:1 DMSO-ethanol. The assay buffer consisted of the following: 300 mM potassium chloride, 10 mM Trizma Base, 2 mM DTT and 5 mM CHAPS , pH=7.5 at room temperature.
Receptor assays were performed in a 250 µL final volume containing from 5-10 µg of extract protein, plus 2-3 nM [^3H]-estradiol and varying concentrations of competing ligand (0 to 10,000 nM). Assays were set up using a 96-well minitube system and incubations were carried out at 4 °C for 18 hours. Equilibrium under these conditions of buffer and temperature was achieved by 6-8 hours. Nonspecific binding was defined as that binding remaining in the presence of 1000 nM unlabeled estradiol. At the end of the incubation period, 200 µL of 6.25% hydroxyapatite was added in wash buffer (binding buffer in the absence of DTT but containing 1 mM CHAPS). Specific ligand binding to receptor was determined by a hydroxyapatite-binding assay according to the protocol outlined by Wecksler, W.R., Norman, A.W, An Hydroxylapatite Batch Assay for the Quantitation of 1α, 25-Dihydroxyvitamin D3-Receptor Complexes. Anal. Biochem. 1979, 92, 314-323, hereby incorporated by reference. Hydroxyapatite absorbs the receptor-ligand complex, allowing for the separation of bound from free radiolabeled ligand. The mixture was vortexed, incubated for 10 minutes at 4 °C, centrifuged, and the supernatant was removed. The hydroxyapatite pellet was washed twice more with the wash buffer. The amount of receptor-ligand complex was determined by liquid scintillation counting of the hydroxyapatite pellet after the addition of […] EcoScint A scintillation cocktail from National Diagnostics (Atlanta, GA.).
After correcting for nonspecific binding, IC50 values were determined. […] The IC50 values were determined graphically from a log-logit plot of the data. […] Standards are included in each assay and resulting Ki values are determined by use of a modified Cheng-Prusoff equation and used to calculate Ki values for "unknown analogs", DeBlasi, A., O'Reilly, K., Motulsky, H.J., Calculating Receptor Number from Binding Experiments Using Same Compound As Radioligand and Competitor, TIPS 1989, 10, 227-229, hereby incorporated by reference.
`CN(C)c1ccc(C(Sc2ccccc2)c2cc([N+](=O)[O-])ccc2Cl)cc1` (stereo not drawn) [Example 54, phenyl-[(4'-dimethylaminophenyl)-(2-chloro-5-nitrophenyl)methyl]thioether] was tested, and the Ki was over 10000 nM.
For `CNc1ccc(C(c2ccc(N(C)C)cc2)c2cc([N+](=O)[O-])ccc2Cl)cc1` (stereo not drawn) [Example 39, 4'-dimethylamino-4"-methylamino-2-chloro-5-nitrotriphenylmethane], the Ki was over 10000 nM.
Compound `O=[N+]([O-])c1ccc(Cl)c(C(c2ccc(NCc3ccccc3)cc2)c2ccc(NCc3ccccc3)cc2)c1` [Example 36, 4',4" bis(N-benzylamino)-2-chloro-5-nitrotriphenylmethane] has a Ki of over 10000 nM.
For `CC(=O)OCCN(C)c1ccc(C(c2ccc(N(C)C)cc2)c2cc([N+](=O)[O-])ccc2Cl)cc1` (stereo not drawn) [Example 51, 4'-dimethylamino-4"-(N-methyl-N-(2-acetoxyethyl)amino)-2-chloro-5-nitrotriphenylmethane], the Ki was over 10000 nM.
Compound `CNc1ccc(C(c2ccc(NC)cc2)c2cc(Cl)ccc2Cl)cc1` [Example 27, 4',4" bis(methylamino)-2,5-dichlorotriphenylmethane] has a Ki of over 10000 nM.
With `CNc1ccc(C(c2ccc(N(C)CCOC(C)=O)cc2)c2cc([N+](=O)[O-])ccc2Cl)cc1` (stereo not drawn) [Example 49, 4'-methylamino-4"-(N-(2-acetoxyethyl)-N-methylamino)-2-chloro-5-nitrotriphenylmethane] the Ki was over 10000 nM.
For `CNc1ccc(C(c2ccc(NC)cc2)c2cc([N+](=O)[O-])ccc2Cl)cc1` [Example 23, 4',4" bis(methylamino)-2-chloro-5-nitrotriphenylmethane], the Ki was over 10000 nM.
`CN(C)c1ccc(C(Oc2ccccc2)c2cc([N+](=O)[O-])ccc2Cl)cc1` (stereo not drawn) [Example 52, phenyl-[(4'-dimethylaminophenyl)-(2-chloro-5-nitrophenyl)methyl] ether] was tested, and the Ki was over 10000 nM.
`CN(C)c1ccc(C(c2ccc(N(C)CCO)cc2)c2cc([N+](=O)[O-])ccc2Cl)cc1` (stereo not drawn) [Example 42, 4'-dimethylamino-4"-(N-methyl-N-(2-hydroxyethyl)amino)-2-chloro-5-nitrotriphenylmethane] gave a Ki of over 10000 nM.
